Assay results taken from patent US11591341B2 (ALIGOS THERAPEUTICS, INC., priority 2019, dated 2023).

Tested on: HBV
Test: HBV-DNA Antiviral Assay Using HepG2.117 Cells (intracellular HBV DNA by qPCR)
Format: cell-based, hepatitis B virus (genotype D)
Conditions: Hepatitis B virus, HepG2.117
How it was run: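 Endpoint: qPCR copy number of intracellular HBV DNA after 3-day compound exposure, with inhibition set relative to the 2% DMSO control. The cells were doxycycline-free HepG2.117 carrying a Tet-off genotype D genome, dosed at nine 4-fold dilutions. A duplicate plate gave ATP-based viability (CC50).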

| SMILES | EC50 [nM] |
| --- | --- |
| COc1ccc(-n2c(C(=O)N[C@@H](C)c3ccccc3F)c3n(c2=O)CCN(C(=O)c2ccc(Br)c(Cl)c2)C3)cc1 (stereo in doubt) [Example 162, 7-(4-bromo-3-chloro-benzoyl)-2-(4-methoxyphenyl)-3-oxo-N-[rac-(1S)-1-(2-fluorophenyl)ethyl]-6,8-dihydro-5H-imidazo[1,5-a]pyrazine-1-carboxamide] | 100 to 500 |
| C[C@H](NC(=O)c1c2n(c(=O)n1-c1ccc(OC3COC3)cc1)CCN(C(=O)c1ccc(Br)c(Cl)c1)C2)c1ccccc1 (stereo in doubt) [Example 169, 7-(4-bromo-3-chloro-benzoyl)-2-[4-(oxetan-3-yloxy)phenyl]-3-oxo-N-[rac-(1S)-1-phenylethyl]-6,8-dihydro-5H-imidazo[1,5-a]pyrazine-1-carboxamide] | 500 to 5000 |
| C[C@@H](NC(=O)c1c2n(c(=O)n1-c1ccc(OC3COC3)cc1)CCN(C(=O)c1ccc(Br)c(Cl)c1)C2)c1ccccc1 (stereo in doubt) [Example 170, 7-(4-bromo-3-chloro-benzoyl)-2-[4-(oxetan-3-yloxy)phenyl]-3-oxo-N-[rac-(1R)-1-phenylethyl]-6,8-dihydro-5H-imidazo[1,5-a]pyrazine-1-carboxamide] | 100 to 500 |
| O=C(c1ccc(Br)c(Cl)c1)N1CCn2c(c3n(c2=O)C[C@H](O)CN(Cc2ccccc2)C3=O)C1 (stereo in doubt) [Example 174, rac-(11R)-13-benzyl-4-(4-bromo-3-chloro-benzoyl)-11-hydroxy-4,7,9,13-tetrazatricyclo[7.5.0.0^2,7]tetradec-1-ene-8.14-dione] | 500 to 5000 |
| O=C(c1ccc(Br)c(Cl)c1)N1CCn2c(c3n(c2=O)C[C@@H](O)CN(Cc2ccccc2)C3=O)C1 (stereo in doubt) [Example 175, rac-(11S)-13-benzyl-4-(4-bromo-3-chloro-benzoyl)-11-hydroxy-4,7,9,13-tetrazatricyclo[7.5.0.0^2,7]tetradec-1-ene-8.14-dione] | 500 to 5000 |
| C[C@@H](NC(=O)c1c2n(c(=O)n1C1CC1)CCN(C(=O)c1ccc(Br)c(Cl)c1)C2)c1ccccc1 (stereo in doubt) [Example 189, 7-(4-bromo-3-chloro-benzoyl)-2-cyclopropyl-3-oxo-N-[rac-(1R)-1-phenylethyl]-6,8-dihydro-5H-imidazo[1,5-a]pyrazine-1-carboxamide] | 500 to 5000 |
| C[C@H](NC(=O)c1c2n(c(=O)n1C1CC1)CCN(C(=O)c1ccc(Br)c(Cl)c1)C2)c1ccccc1 (stereo in doubt) [Example 190, 7-(4-bromo-3-chloro-benzoyl)-2-cyclopropyl-3-oxo-N-[rac-(1S)-1-phenylethyl]-6,8-dihydro-5H-imidazo[1,5-a]pyrazine-1-carboxamide] | 500 to 5000 |
| COc1ccc(CN2C[C@@H](O)Cn3c(c4n(c3=O)CCN(C(=O)c3ccc(Br)c(Cl)c3)C4)C2=O)cc1 (stereo in doubt) [Example 193, rac-(11R)-4-(4-bromo-3-chloro-benzoyl)-11-hydroxy-13-[(4-methoxyphenyl)methyl]-4,7,9,13-tetrazatricyclo[7.5.0.0^2,7]tetradec-1-ene-8,14-dione] | 100 to 500 |
| COc1ccc(CN2C[C@H](O)Cn3c(c4n(c3=O)CCN(C(=O)c3ccc(Br)c(Cl)c3)C4)C2=O)cc1 (stereo in doubt) [Example 194, rac-(11S)-4-(4-bromo-3-chloro-benzoyl)-11-hydroxy-13-[(4-methoxyphenyl)methyl]-4,7,9,13-tetrazatricyclo[7.5.0.0^2,7]tetradec-1-ene-8,14-dione] | 100 to 500 |
| O=C(c1ccc(Br)c(Cl)c1)N1CCn2c(c3n(c2=O)C[C@H](F)CN(Cc2ccccc2)C3=O)C1 (stereo in doubt) [Example 200, rac-(11R)-13-benzyl-4-(4-bromo-3-chloro-benzoyl)-11-fluoro-4,7,9,13-tetrazatricyclo[7.5.0.0^2,7]tetradec-1-ene-8,14-dione] | 100 to 500 |
| O=C(c1ccc(Br)c(Cl)c1)N1CCn2c(c3n(c2=O)C[C@@H](F)CN(Cc2ccccc2)C3=O)C1 (stereo in doubt) [Example 201, rac-(11S)-13-benzyl-4-(4-bromo-3-chloro-benzoyl)-11-fluoro-4,7,9,13-tetrazatricyclo[7.5.0.0^2,7]tetradec-1-ene-8,14-dione] | 100 to 500 |
| C[C@H](c1ccccc1)N1C[C@@H](O)Cn2c(c3n(c2=O)CCN(C(=O)c2ccc(Br)c(Cl)c2)C3)C1=O (stereo in doubt) [Example 202, (11RS)-4-(4-bromo-3-chloro-benzoyl)-11-hydroxy-13-[(1R)-1-phenylethyl]-4,7,9,13-tetrazatricyclo[7.5.0.0^2,7]tetradec-1-ene-8.14-dione] | 100 to 500 |
| C[C@H](c1ccccc1)N1C[C@H](O)Cn2c(c3n(c2=O)CCN(C(=O)c2ccc(Br)c(Cl)c2)C3)C1=O (stereo in doubt) [Example 203, (11SR)-4-(4-bromo-3-chloro-benzoyl)-11-hydroxy-13-[(1R)-1-phenylethyl]-4,7,9,13-tetrazatricyclo[7.5.0.0^2,7]tetradec-1-ene-8,14-dione] | 100 to 500 |
| COc1ccc(-n2c(C(=O)N[C@H](c3ccccc3)C(F)(F)F)c3n(c2=O)CCN(C(=O)c2ccc(Br)c(Cl)c2)C3)cc1 (stereo in doubt) [Example 208, 7-(4-bromo-3-chloro-benzoyl)-2-(4-methoxyphenyl)-3-oxo-N-[rac-(1R)-2,2,2-trifluoro-1-phenyl-ethyl]-6,8-dihydro-5H-imidazo[1,5-a]pyrazine-1-carboxamide] | 100 to 500 |
| COc1ccc(-n2c(C(=O)N[C@@H](c3ccccc3)C(F)(F)F)c3n(c2=O)CCN(C(=O)c2ccc(Br)c(Cl)c2)C3)cc1 (stereo in doubt) [Example 209, 7-(4-bromo-3-chloro-benozyl)-2-(4-methoxyphenyl)-3-oxo-N-[rac-(1S)-2,2,2-trifluoro-1-phenyl-ethyl]-6,8-dihydro-5H-imidazo[1,5-a]pyrazine-1-carboxamide] | 100 to 500 |
| CC(C)Oc1ccc(-n2c(C(=O)N[C@H](C)c3ccc(C#N)cc3)c3n(c2=O)CCN(C(=O)c2ccc(Br)c(Cl)c2)C3)cc1 (stereo in doubt) [Example 233, 7-(4-bromo-3-chloro-benzoyl)-2-(4-isopropoxyphenyl)-3-oxo-N-[rac-(1R)-1-(4-cyanophenyl)ethyl]-6,8-dihydro-5H-imidazo[1,5-a]pyrazine-1-carboxamide] | 100 to 500 |
| CC(C)Oc1ccc(-n2c(C(=O)N[C@@H](C)c3ccc(C#N)cc3)c3n(c2=O)CCN(C(=O)c2ccc(Br)c(Cl)c2)C3)cc1 (stereo in doubt) [Example 234, 7-(4-bromo-3-chloro-benzoyl)-2-(4-isopropoxyphenyl)-3-oxo-N-[rac-(1S)-1-(4-cyanophenyl)ethyl]-6,8-dihydro-5H-imidazo[1,5-a]pyrazine-1-carboxamide] | 100 to 500 |
| COc1ccc([C@H](C)NC(=O)c2c3n(c(=O)n2-c2ccc(OC(C)C)cc2)CCN(C(=O)c2ccc(Br)c(Cl)c2)C3)c(F)c1 (stereo in doubt) [Example 235, 7-(4-bromo-3-chloro-benzoyl)-2-(4-isopropoxyphenyl)-3-oxo-N-[rac-(1S)-1-(2-fluoro-4-methoxy-phenyl)ethyl]-6,8-dihydro-5H-imidazo[1,5-a]pyrazine-1-carboxamide] | 100 to 500 |
